Reference: patent US9840494B2, “Quinazoline derivative” (Tianjin Hemay Oncology Pharmaceutical Co., Ltd., priority 2013, dated 2017)
Like-named read-outs stand apart in the source and are kept apart here.

Assay: Bioavailability assay in rats, Experiment I (dihydrochloride)
Type: in vivo
Conditions: Wistar rats; for half-life: read-out: T½ elimination half-life (converted)
Description: Experiment I. Bioavailability Assay for N-[4-(3-chloro-4-fluorophenylamino)-7-(2-methoxyethoxy)quinazolin-6-yl]-2-[1-(2-methoxyethyl)piperidin-4-ylidene]acetamide Dihydrochloride in Rats
12 Wistar rats (male, weighing 200-220 g) were purchased from Beijing Vital River Laboratory Animal Technology Co., Ltd. License No.: SCXK (Beijing) 2007-0001.
2.1 30 mg of N-[4-(3-chloro-4-fluorophenylamino)-7-(2-methoxyethoxy)quinazolin-6-yl]-2-[1-(2-methoxyethyl)piperidin-4-ylidene]acetamide dihydrochloride was weighted, and 6 ml of ultrapure water was added thereto to prepare a sample solution (5 mg/ml)) for use in intravenous administration.
2.2 30 mg of N-[4-(3-chloro-4-fluorophenylamino)-7-(2-methoxyethoxy)quinazolin-6yl]-2-[1-(2-methoxyethyl)piperidin-4-ylidene]acetamide dihydrochloride was weighted, and 12 ml of ultrapure water was added thereto to prepare a sample solution (2.5 mg/ml)) for use in intragastric administration.
4.1.1 HPLC Conditions: chromatographic column: octadecyl-bonded silica gel as filler (4.6 mm×50 mm, 1.8 μm), Agilent; mobile phase: methanol: 5 mM ammonium acetate (PH4.0) (60: 40); flow rate: 1 ml/min; column temperature: 40° C.
Ion: 544.3→457.1 (N-[4-(3-chloro-4-fluorophenylamino)-7-(2-methoxyethoxy)quinazolin-6-yl]-2-[1-(2-methoxyethyl)piperidin-4-ylidene]acetamide dihydrochloride)
Dwell Time: 80; fragment voltage: 180; collision energy: 25;
1 mg of N-[4-(3-chloro-4-fluorophenylamino)-7-(2-methoxyethoxy)quinazolin-6-yl]-2-[1-(2-methoxyethyl)piperidin-4-ylidene]acetamide dihydrochloride was weighted and formulated into a solution in methanol (1 mg/ml)). The solution was then diluted stepwise into standard solutions of 50 ng/ml, 100 ng/ml, 200 ng/ml, 500 ng/ml, 1 μg/ml, 2 μg/ml, 5 μg/ml, 10 μg/ml, 20 μg/ml, 50 μg/ml, and 100 μg/ml. 10 μl of the standard solutions were separately pipetted into centrifuge tubes (1.5 ml). 10 μl of internal standard (1 μg/ml Lipitor solution in methanol) was added thereto. 100 μl of rat plasma was then added thereto. The mixture was vortexed. Then 200 μl of acetonitrile was added to precipitate protein, then vortexed for 1 min and centrifuged at 16000 r/min for 8 min 10 μl of the supernatant was directly injected for measurement.
12 rats were randomly divided into two groups, i.e. six rats per group. These rats were fasted and ad libitum accessed to water for 12 hours before administration. Blank blood (about 0.5 ml) of each rat was withdrawn, and then N-[4-(3-chloro-4-fluorophenylamino)-7-(2-methoxyethoxy)quinazolin-6-yl]-2-[1-(2-methoxyethyl)piperidin-4-ylidene]acetamide dihydrochloride (20 mg/kg) was administrated via intragastric gavage and tail intravenous injection, respectively. Blood (about 0.5 ml) was withdrawn from the orbital venous plexus at different time points after the administration (blood collection points for tail intravenous administration were: 5 min, 15 min, 0.5 h, 1 h, 2 h, 3 h, 4 h, 6 h, 8 h, 12 h, 18 h, 24 h, 30 h; and blood collection time-points for intragastric administration were: 5 min, 10 min, 20 min, 30 min, 45 min, 1 h, 2 h, 3 h, 4 h, 6 h, 8 h, 12 h, 18 h, 24 h, 30 h). The blood was drawn into a heparinized centrifuge tube and centrifuged at 8000 r/min for 10 min 100 μl of the plasma was pipetted into a centrifuge tube (1.5 ml), and 10 μl of internal standard (1 μg/ml atorvastatin hemi-calcium salt solution in methanol) was added thereto. The resulting mixture was vortexed. Then 200 μl of acetonitrile was added to precipitate protein, vortexed for 1 min and centrifuged at 16000 r/min for 8 min The supernatant was recovered, and 10 μl of the supernatant was directly injected for detection.
5.1 A standard curve with the natural logarithm of the sample concentration as abscissa and the natural logarithm of the peak area ratio of the sample to the internal standard as ordinate was established as: y=1.008x−4.149; R2=0.998
Method for the calculation of bioavailability: F=(AUCig×Div)/(AUCiv×Dig)×100% […]

[1] = male, rat, plasma, oral, 20 mg/kg ig, read-out: Average Plasma Drug Concentration
[2] = male, rat, plasma, po, 20 mg/kg ig
[3] = male, rat, plasma, 20 mg/kg iv, read-out: Average Plasma Drug Concentration

With `COCCOc1cc2ncnc(Nc3ccc(F)c(Cl)c3)c2cc1NC(=O)C=C1CCN(CCOC)CC1.Cl.Cl` [Compound 2, N-[4-(3-chloro-4-fluorophenylamino)-7-(2-methoxyethoxy)quinazolin-6yl]-2-[1-(2-methoxyethyl)piperidin-4-ylidene]acetamide dihydrochloride] the “K (elimination rate constant)” value (20 mg/kg iv) was 0.14, the bioavailability (male, rat, plasma, oral, 20 mg/kg ig vs 20 mg/kg iv) was 56.9% and the concentration at 0.167 h (male, rat, plasma, oral, 20 mg/kg ig, 0.167 h, read-out: Average Plasma Drug Concentration) was 39.4 ng/mL. It also gave a concentration at 0.33 h (male, rat, plasma, oral, 20 mg/kg ig, 0.33 h, read-out: Average Plasma Drug Concentration) of 145 ng/mL, a concentration at 0.5 h [1] of 202 ng/mL and a concentration at 0.75 h (male, rat, plasma, oral, 20 mg/kg ig, 0.75 h, read-out: Average Plasma Drug Concentration) of 285 ng/mL. The concentration at 1 h [1] was 342 ng/mL, the concentration at 2 h [1] was 342 ng/mL and the concentration at 3 h [1] was 406 ng/mL. For the same molecule, the concentration at 4 h [1] was 468 ng/mL, the concentration at 6 h [1] was 536 ng/mL and the concentration at 8 h [1] was 495 ng/mL. The concentration at 12 h [1] was 330 ng/mL, the concentration at 18 h [1] was 139 ng/mL and the concentration at 24 h [1] was 72.4 ng/mL. The concentration at 30 h [1] was 22.7 ng/mL, the concentration at 0.083 h (male, rat, plasma, oral, 20 mg/kg intragastric gavage (ig), read-out: Average Plasma Drug Concentration) was 17.1 ng/mL and the AUC [2] was 7350 ng·h/mL. The half-life [2] was 4.73 h, the AUC (male, rat, plasma, 20 mg/kg iv) was 12900 ng·h/mL and the concentration at 0.25 h (male, rat, plasma, 20 mg/kg iv, 0.25 h, read-out: Average Plasma Drug Concentration) was 3240 ng/mL. It also gave a concentration at 0.5 h [3] of 2700 ng/mL, a concentration at 1 h [3] of 1720 ng/mL and a concentration at 2 h [3] of 1330 ng/mL. For the same molecule, the concentration at 3 h [3] was 989 ng/mL, the concentration at 4 h [3] was 748 ng/mL and the concentration at 6 h [3] was 557 ng/mL. The concentration at 8 h [3] was 547 ng/mL, the concentration at 12 h [3] was 325 ng/mL and the concentration at 18 h [3] was 181 ng/mL. It also gave a concentration at 24 h [3] of 80.8 ng/mL, a concentration at 30 h [3] of 29.6 ng/mL and a half-life (male, rat, plasma, 20 mg/kg iv) of 5.18 h. The concentration at 0.083 h (male, rat, plasma, 20 mg/kg tail intravenous injection (iv), read-out: Average Plasma Drug Concentration) was 4850 ng/mL.
